Assay results as given in the NIST ThermoML archive (doi:10.1016/j.fluid.2010.10.009).

Assays:
[1] = 303.15 K; 101.33 kPa; Liquid; Concentric cylinders viscometry
[2] = xn = mol fraction of the nth substance listed; conditions: 101 kPa, Liquid, Concentric cylinders viscometry

CCCCCCCCCC [decane]
Conditions | viscosity [mPa·s]
[1] | 0.7838

CC(C)(C)O [2-methylpropan-2-ol] + CCCCCCC
viscosity [mPa·s], [2]
Conditions | 303.15 K | 308.15 K | 313.15 K | 318.15 K | 323.15 K
x1 = 0.103 | 0.3899 | 0.3703 | 0.353 | 0.3329 | 0.3144
x1 = 0.2002 | 0.4118 | 0.3885 | 0.367 | 0.3441 | 0.3201
x1 = 0.3006 | 0.4501 | 0.4228 | 0.3983 | 0.3737 | 0.3489
x1 = 0.3999 | 0.4922 | 0.463 | 0.433 | 0.4062 | 0.3805
x1 = 0.5001 | 0.558 | 0.5194 | 0.4838 | 0.4507 | 0.419
x1 = 0.6001 | 0.6624 | 0.6063 | 0.5587 | 0.5157 | 0.4765
x1 = 0.6996 | 0.8071 | 0.7282 | 0.667 | 0.6022 | 0.5477
x1 = 0.8001 | 1.1 | 0.9711 | 0.8581 | 0.7681 | 0.6836
x1 = 0.9 | 1.699 | 1.426 | 1.214 | 1.044 | 0.9079
x1 = 0.95 | 2.263 | 1.86 | 1.541 | 1.293 | 1.096
x1 = 1 | 3.387 | 2.63 | 2.097 | 1.707 | 1.415

CCCCCCCCC [nonane] + CC(C)(C)O
viscosity [mPa·s], [2]
Conditions | 303.15 K | 308.15 K | 313.15 K | 318.15 K | 323.15 K
x2 = 0 | 0.6323 | 0.5974 | 0.5652 | 0.5352 | 0.5073
x2 = 0.1012 | 0.6377 | 0.5996 | 0.5644 | 0.532 | 0.502
x2 = 0.2008 | 0.6593 | 0.6177 | 0.5795 | 0.5442 | 0.5114
x2 = 0.3 | 0.6872 | 0.6414 | 0.5995 | 0.5608 | 0.5247
x2 = 0.3999 | 0.7276 | 0.676 | 0.6289 | 0.5857 | 0.5459
x2 = 0.4995 | 0.7904 | 0.7297 | 0.6749 | 0.6251 | 0.5795
x2 = 0.5998 | 0.8796 | 0.8038 | 0.7366 | 0.6766 | 0.6227
x2 = 0.6991 | 1.027 | 0.923 | 0.8336 | 0.7558 | 0.6874
x2 = 0.7997 | 1.297 | 1.136 | 1.003 | 0.8918 | 0.7976
x2 = 0.9 | 1.856 | 1.556 | 1.323 | 1.137 | 0.9883
x2 = 0.9494 | 2.392 | 1.944 | 1.608 | 1.351 | 1.151

CC(C)(C)O [2-methylpropan-2-ol] + CCCCCCCCCC
[2], x1 = 1
Conditions | viscosity [mPa·s]
303.15 K | 3.387
308.15 K | 2.63
313.15 K | 2.097
318.15 K | 1.707
323.15 K | 1.415

CC(C)(C)O [2-methylpropan-2-ol] + CCCCCCCCC
[2], x1 = 1
Conditions | viscosity [mPa·s]
303.15 K | 3.387
308.15 K | 2.63
313.15 K | 2.097
318.15 K | 1.707
323.15 K | 1.415

CCCCCCCC [octane]
Conditions | viscosity [mPa·s]
[1] | 0.4918

CCCCCCC [heptane] + CC(C)(C)O
[2], x2 = 0
Conditions | viscosity [mPa·s]
303.15 K | 0.3773
308.15 K | 0.3603
313.15 K | 0.3432
318.15 K | 0.3269
323.15 K | 0.3106

CCCCCCCCCC [decane] + CC(C)(C)O
viscosity [mPa·s], [2]
Conditions | 303.15 K | 308.15 K | 313.15 K | 318.15 K | 323.15 K
x2 = 0 | 0.7838 | 0.7337 | 0.6883 | 0.6466 | 0.6085
x2 = 0.1003 | 0.7786 | 0.7263 | 0.6791 | 0.6362 | 0.597
x2 = 0.2001 | 0.7925 | 0.7382 | 0.6879 | 0.6422 | 0.6002
x2 = 0.3 | 0.825 | 0.7653 | 0.7104 | 0.6604 | 0.6153
x2 = 0.3997 | 0.8622 | 0.7934 | 0.7326 | 0.6775 | 0.627
x2 = 0.5 | 0.9148 | 0.8404 | 0.7726 | 0.7125 | 0.6566
x2 = 0.5999 | 0.9861 | 0.8974 | 0.8188 | 0.7493 | 0.6869
x2 = 0.6997 | 1.129 | 1.01 | 0.9091 | 0.8219 | 0.7459
x2 = 0.8001 | 1.372 | 1.199 | 1.058 | 0.9404 | 0.8399
x2 = 0.8999 | 1.937 | 1.621 | 1.376 | 1.182 | 1.024
x2 = 0.9499 | 2.366 | 1.948 | 1.614 | 1.357 | 1.155

CCCCCCCC [octane] + CC(C)(C)O
[2], x2 = 0
Conditions | viscosity [mPa·s]
303.15 K | 0.4918
308.15 K | 0.4684
313.15 K | 0.447
318.15 K | 0.425
323.15 K | 0.4049

CC(C)(C)O [2-methylpropan-2-ol]
Conditions | viscosity [mPa·s]
[1] | 3.387

CCCCCCCCC [nonane]
Conditions | viscosity [mPa·s]
[1] | 0.6323

CC(C)(C)O [2-methylpropan-2-ol] + CCCCCCCC
viscosity [mPa·s], [2]
Conditions | 303.15 K | 308.15 K | 313.15 K | 318.15 K | 323.15 K
x1 = 0.1002 | 0.5022 | 0.4758 | 0.4509 | 0.4272 | 0.4044
x1 = 0.2002 | 0.5263 | 0.4972 | 0.47 | 0.4443 | 0.4198
x1 = 0.2996 | 0.558 | 0.525 | 0.4943 | 0.4656 | 0.4377
x1 = 0.4003 | 0.6031 | 0.5644 | 0.5287 | 0.4956 | 0.4646
x1 = 0.5006 | 0.6658 | 0.6186 | 0.5757 | 0.5363 | 0.5
x1 = 0.5998 | 0.7587 | 0.6975 | 0.6429 | 0.5938 | 0.549
x1 = 0.7 | 0.912 | 0.8243 | 0.7485 | 0.6822 | 0.6233
x1 = 0.799 | 1.187 | 1.044 | 0.9254 | 0.8261 | 0.7415
x1 = 0.8499 | 1.438 | 1.236 | 1.075 | 0.9428 | 0.833
x1 = 0.9 | 1.781 | 1.496 | 1.275 | 1.099 | 0.958
x1 = 0.9235 | 2.015 | 1.669 | 1.404 | 1.198 | 1.034
x1 = 0.9499 | 2.353 | 1.913 | 1.584 | 1.333 | 1.136
x1 = 1 | 3.387 | 2.63 | 2.097 | 1.707 | 1.415

CCCCCCC [heptane]
Conditions | viscosity [mPa·s]
[1] | 0.3773
